Calls of active or inactive are those of the source. The calls are words filed in the database; no cut-off is given here.
Columns and labels:
Zika virus [1] = experiment: Antiviral activity against ZIKV ZG-01 infected in Ifnar1 knockout C57BL/6 mouse assessed as reduction in neuronal necrosis by measuring pyknosis at 20 mg/kg, iv administered daily for 7 days and measured upto 12 dpi by H and E staining based analysis; format: functional, organism-based; conditions: time <= 12.0 day
HEK293T = experiment: Inhibition of ZIKV RNA polymerase NS5 expressed in HEK293T cells co-transfected with Gluc-reporter gene at 20 uM incubated for 24 hrs by Dual-glo luminescence assay; format: cell-based; conditions: Zika virus
JEG-3 [2] = experiment: Antiinflammatory activity in human JEG-3 cells assessed as reduction in TNFalpha expression by RT-PCR analysis; format: functional, cell-based
Zika virus [3] = experiment: Antiviral activity against ZIKV ZG-01 infected in human JEG-3 cells assessed as reduction in LDH release incubated for 36 hrs; format: functional, organism-based; conditions: dose 1-5 µM
Zika virus [4] = experiment: Antiviral activity against ZIKV ZG-01 infected in human JEG-3 cells assessed as reduction in TNFalpha expression at 1 to 5 uM by RT-PCR analysis; format: functional, organism-based; conditions: dose 1-5 µM
Zika virus [5] = experiment: Antiviral activity against ZIKV ZG-01 infected in Ifnar1 knockout C57BL/6 mouse assessed as reduction in astrocytes activation by measuring GFAP expression at 20 mg/kg, iv administered daily for 7 days by immunohistochemistry analysis; format: functional, organism-based; conditions: time 7.0 day
Zika virus [6] = experiment: Antiviral activity against ZIKV ZG-01 infected in Vero cells assessed as reduction in viral replication at 20 uM preincubated for 1 hr followed by replacement with fresh media containing compound for 48 hrs by RT-PCR analysis; format: functional; parameters: scale not given: the % may be the effect or the level left; conditions: time 49 hrs
Zika virus [7] = experiment: Antiviral activity against ZIKV ZG-01 infected in A549 cells preincubated for 1 hr followed by replacement with fresh media containing compound for 48 hrs by crystal violet staining based plaque assay; format: functional, organism-based; conditions: time 49.0 hrs
Zika virus [8] = experiment: Antiviral activity against ZIKV ZG-01 infected in human SNB-19 cells assessed as reduction in TNFalpha expression at 1 to 5 uM by RT-PCR analysis; format: functional, organism-based; conditions: dose 1-5 µM
JEG-3 [9] = experiment: Antiinflammatory activity in human JEG-3 cells assessed as reduction in IFNgamma expression by RT-PCR analysis; format: functional, cell-based
Zika virus [10] = experiment: Antiviral activity against ZIKV ZG-01 infected in human SNB-19 cells assessed as reduction in IL-6 expression at 1 to 5 uM by RT-PCR analysis; format: functional, organism-based; conditions: dose 1-5 µM
Zika virus [11] = experiment: Antiviral activity against ZIKV ZG-01 infected in human JEG-3 cells assessed as reduction in TNFalpha release at 1 to 5 uM by ELISA; format: functional, organism-based; conditions: dose 1-5 µM
[12] = Toxicity in Ifnar1 knockout C57BL/6 mouse assessed as movement disorders at 60 mg/kg administered for 7 days; format: organism-based; conditions: in vivo, 168 h, time 7 day
Zika virus [13] = experiment: Antiviral activity against ZIKV ZG-01 infected in human JEG-3 cells assessed as reduction in IFNgamma expression at 1 to 5 uM by RT-PCR analysis; format: functional, organism-based; conditions: dose 1-5 µM
[14] = Cytotoxicity against human JEG-3 cells assessed as reduction in cell viability incubated for 48 hrs by MTT assay; format: toxicity, cell-based
Zika virus [15] = experiment: Antiviral activity against ZIKV ZG-01 infected in SNB-19 cells preincubated for 1 hr followed by replacement with fresh media containing compound for 48 hrs by crystal violet staining based plaque assay; format: functional
HEK-293T = experiment: Effect on gaussia luciferase expression in HEK293T cells at 1 to 10 uM; format: functional, cell-based; conditions: Homo sapiens, dose 1-10 µM
SNB-19 = experiment: Antiinflammatory activity in human SNB-19 cells assessed as reduction in IL-6 expression by RT-PCR analysis; format: functional, cell-based
Zika virus [16] = experiment: Antiviral activity against ZIKV ZG-01 infected in human JEG-3 cells assessed as reduction in IL-1beta expression at 1 to 5 uM by RT-PCR analysis; format: functional, organism-based; conditions: dose 1-5 µM
Zika virus [17] = experiment: Antiviral activity against ZIKV ZG-01 infected in JEG-3 cells assessed as reduction in number of viral positive cells at 5 uM by immunofluorescence assay; format: functional, organism-based
Zika virus [18] = experiment: Antiviral activity against ZIKV ZG-01 infected in human JEG-3 cells assessed as reduction in GSDMD cleavage by Western blot analysis; format: functional, organism-based; conditions: dose 1-20 µM
Zika virus [19] = experiment: Antiviral activity against ZIKV ZG-01 infected in human SNB-19 cells assessed as reduction in TNFalpha release at 1 to 5 uM by ELISA; format: functional, organism-based; conditions: dose 1-5 µM
Zika virus [20] = experiment: Antiviral activity against ZIKV ZG-01 infected in Ifnar1 knockout C57BL/6 mouse assessed as reduction in number of animal paralysis at 20 mg/kg, iv administered daily for 7 days; format: functional, organism-based; conditions: time 7.0 day
Zika virus [21] = experiment: Antiviral activity against ZIKV ZG-01 infected in SNB-19 cells assessed as reduction in viral envelope protein expression at 5 uM by immunofluorescence assay; format: functional, organism-based
Zika virus [22] = experiment: Antiviral activity against ZIKV ZG-01 infected in JEG-3 cells assessed as reduction in viral envelope protein expression at 5 uM by immunofluorescence assay; format: functional, organism-based
[23] = Cytotoxicity against human SNB-19 cells assessed as reduction in cell viability incubated for 48 hrs by MTT assay; format: toxicity, cell-based
Zika virus [24] = experiment: Antiviral activity against ZIKV ZG-01 infected in Ifnar1 knockout C57BL/6 mouse assessed as reduction in weight loss at 20 mg/kg, iv administered daily for 7 days and measured upto 12 dpi; format: functional, organism-based; conditions: time <= 12.0 day
[25] = Cytotoxicity against african green monkey Vero cells assessed as reduction in cell viability incubated for 48 hrs by MTT assay; format: toxicity, cell-based; conditions: chlorocebus sabaeus
Zika virus [26] = experiment: Antiviral activity against ZIKV ZG-01 infected in Ifnar1 knockout C57BL/6 mouse assessed as reduction in mortality rate at 20 mg/kg, iv administered daily for 7 days; format: functional, organism-based; conditions: time 7.0 day

C[C@]1(O)CC2=C(C[C@@]1(C)O)C(=O)c1c(O)cc(N3CCC(c4ccccc4)CC3)c(O)c1C2=O
Activity (Zika virus [1]): Active
inhibition (HEK293T): Dose-Dependent Effect
Activity (JEG-3 [2]): inactive
Activity (Zika virus [3]): Dose-Dependent Effect
Activity (Zika virus [4]): Active
Activity (Zika virus [5]): Active
Activity (Zika virus [6]): 100%
Activity (Zika virus [7]): Dose-Dependent Effect
Activity (Zika virus [8]): Active
Activity (JEG-3 [9]): inactive
Activity (Zika virus [10]): Active
Activity (Zika virus [11]): Active
Activity [12]: Non-Toxic
Activity (Zika virus [13]): Active
CC50 at 48 h [14]: 54.7 µM
EC90 (Zika virus [15]; ZG-01, SNB-19, time 49 hrs): 6.4 µM
Activity (Zika virus [15]; time 49.0 hrs): Dose-Dependent Effect
Activity (HEK-293T): inactive
Activity (SNB-19): inactive
Activity (Zika virus [16]): Active
Activity (Zika virus [17]): Active
Activity (Zika virus [18]): Dose-Dependent Effect
Activity (Zika virus [19]): Active
Activity (Zika virus [20]): Active
Activity (Zika virus [21]): Active
Activity (Zika virus [22]): Active
CC50 at 48 h [23]: 66.1 µM
Activity (Zika virus [24]): Active
CC50 at 48 h [25]: 65.4 µM
Activity (Zika virus [26]): Active
